Reference: patent US10865196B2, “Compounds for treatment of cancer” (University of Tennessee Research Foundation, priority 2008, dated 2020)
Where two headings read alike, the source gives them in different places.

Legend:
[1] = system: prostate cancer cells (LNCaP, PC-3, DU-145, PPC-1); experiment: SRB assay, prostate cancer cells; assay type: cell-based, human; details: Homo sapiens, range over prostate cancer cell lines; read-out: IC50 values against prostate cancer cells
[2] = molecular target: T1, Porcine brain tubulin (Sus scrofa, UniProt P02550+P02554); assay type: biochemical; details: 5 μM, at 15 min
T1 construct: […]; purchased Cytoskeleton, Denver, Colo; host or cells: porcine brain

[3] = system: colchicine-binding site on tubulin; experiment: competitive mass binding assay, colchicine-tubulin binding; details: tubulin 1 mg/mL
[4] = system: PC-3; experiment: apoptosis, cytoplasmic DNA-histone complexes, PC-3; assay type: cell-based, human; details: 0.8 to 600 nmol/L, 24 h
[5] = system: PC-3/TxR; experiment: apoptosis, cytoplasmic DNA-histone complexes, PC-3/TxR; assay type: cell-based, human; details: 0.8 to 600 nmol/L, 24 h
[6] = system: PC3; experiment: cell growth inhibition SRB, PC3 (vascular study); assay type: cell-based; details: Homo sapiens, PC-3, N = 3, Table 14
Source text: (§1) Cell growth inhibition studies. […] Cells were stained with sulphorhodamine B (SRB) solution.

[7] = system: T47D; experiment: cell growth inhibition SRB, T47D; assay type: cell-based; details: Homo sapiens, N = 3, Table 14
Source text: as §1

[8] = system: HUVEC; experiment: endothelial cell growth inhibition SRB, HUVEC; assay type: cell-based, human; details: Homo sapiens, HUVEC; SRB, N = 3, growth factor-supplemented endothelial cells
[9] = system: confluent HUVEC monolayers; experiment: endothelial monolayer permeability assay; assay type: cell-based, human; details: leakage of FITC-dextran (MW 40,000) after 1, 2 and 4 h
Source text: Endothelial monolayer permeability assay.

[10] = system: PC-3/TxR tumors; details: for Tumor size End: mouse, in vivo, po
[11] = system: CaCO-2; experiment: permeability, CaCO-2 assay; details: mean of duplicate studies
[12] = pharmacokinetic study in ICR mice; details: mouse, PO 20 mg/kg vs IV 10 mg/kg
[13] = pharmacokinetic study in beagle dogs; details: dog, PO 5 mg/kg vs IV 2 mg/kg
[14] = pharmacokinetic study in Sprague-Dawley rats; details: rat
[15] = system: PC-3; experiment: SRB antiproliferation assay, PC-3 prostate cancer; details: human, PC-3 cells, 96 h
[16] = system: LNCaP; experiment: SRB antiproliferation assay, LNCaP prostate cancer; details: read-out: Cytotoxicity IC50 mean ± SD, LNCaP; 96 h treatment, N = 3
[17] = system: PPC-1; experiment: SRB antiproliferation assay, PPC-1 prostate cancer; details: read-out: Cytotoxicity IC50 mean ± SD, PPC-1; 96 h treatment, N = 3
[18] = system: DU 145; experiment: SRB antiproliferation assay, DU 145 prostate cancer; details: read-out: Cytotoxicity IC50 mean ± SD, Du-145; 96 h treatment, N = 3

With `COc1cc(C(=O)c2csc(Nc3ccc4[nH]ccc4c3)n2)cc(OC)c1OC` [compound 55, (2-(1H-indol-5-ylamino)thiazol-4-yl)(3,4,5-trimethoxyphenyl)methanone] the IC50 [1] was 7.5 to 24.1 nM, the “inhibition of tubulin polymerization” value [2] was 40% and the “competition with colchicine for tubulin binding” value [3] was “competed effectively with colchicine for tubulin binding”. For the same compound, the “induction of cell apoptosis in PC-3” value [4] was “equally potent”, the “induction of cell apoptosis in PC-3/TxR” value [5] was “equally potent” and the IC50 [6] was 23.3 nM. The IC50 [7] was 37.4 nM, the IC50 [8] was 9.7 nM and the “permeability of endothelial cell monolayer” value [9] was “increased permeability”. The “Body weight End” value ([10]; PC-3/TxR xenograft, PO 10 mpk b.i.d × 5/w, day 26, start 29 ± 2) was 26 ± 3 g, the TGI ([10]; PC-3/TxR xenograft, PO 30 mpk b.i.d × 5/w, day 26, 30 mg/kg) was greater than 100% and the “Body weight End” value ([10]; PC-3/TxR xenograft, PO 30 mpk b.i.d × 5/w, day 26, start 29 ± 3) was 30 ± 2 g. For the same compound, the “Tumor size End” value ([10]; 10 mg/kg) was 1152 ± 433 mm^3, the “Tumor size End” value ([10]; 30 mg/kg) was 101 ± 19 mm^3 and the “Permeability Papp(A→B) in CaCO-2 assay” value [11] was 99 10^−6 cm/s. It also gave an F [12] of 34%, an F [13] of 36% and an AUC ([14]; IV 5 mg/kg) of 509 ± 73 µg·min/mL. The Vss ([14]; IV 5 mg/kg) was 1.0 ± 0.1 L/kg, the AUC ([14]; PO 10 mg/kg) was 246 ± 163 µg·min/mL and the F ([14]; PO 10 mg/kg vs IV 5 mg/kg) was 24%. The IC50 [15] was 16.5 ± 1.5 nM, the IC50 [16] was 27 ± 0.6 nM and the IC50 [17] was 36 ± 0.4 nM. It also gave an IC50 [18] of 38 ± 0.6 nM.
